Among the data in BindingDB's records for doi:10.1016/0960-894X(96)00014-5 (1996) are IC50 values, retold here.

For orientation: IC50 means the concentration that inhibits the measured activity by half.

Each structure is given as a SMILES string.

A short description of the experiment: Compound was tested for inhibition of chymotrypsin-like protease of proteasome from postmortem human liver and brain.
In turn, `CC(C)CC(NC(=O)C(CCCN=C(N)N[N+](=O)[O-])NC(=O)C(CCCCCCCCC#N)C1CCCC1)B1OC(C)(C)C(C)(C)O1` (stereo not drawn) [Alpha-ketocarbonyl boronic ester derivative] registered an IC50 of 8 nM.
The result for `CC(C)CC(C=O)NC(=O)C(CCCN=C(N)N[N+](=O)[O-])NC(=O)C(CCCCCCCCN1C(=O)c2ccccc2C1=O)C1CCCC1` (stereo not drawn) [Alpha-ketocarbonyl derivative] reads 2 nM; that for `CC(C)CC(NC(=O)C(CCCN=C(N)N[N+](=O)[O-])NC(=O)C(CCCCCCCCC#N)C1CCCC1)C(=O)CCl` (stereo not drawn) [Alpha-ketocarbonyl derivative], over 1000 nM.
